Our source for the IC50 values is patent publication US20230031406A1, “COMPOUNDS AND COMPOSITIONS FOR TREATING CONDITIONS ASSOCIATED WITH NLRP ACTIVITY” (Novartis AG, priority 2018, published 2023).

Each structure is given as a SMILES string. Where two headings read alike, the source gives them in different places.

For the assay, the system named is PMA-differentiated THP-1 cells. Description: IL-1β production in PMA-differentiated THP-1 cells stimulated with gramicidin (hTHP-1 assay containing 2% fetal bovine serum; Procedures 1 and 2). The class given is cell-based, human. Conditions: 2% fetal bovine serum. Put shortly:
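IL-1β release from PMA-differentiated THP-1 macrophage-like cells was triggered by 5 μM gramicidin for 2 h after 1 h compound exposure, then measured by HTRF.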

Where [1] appears, read: Homo sapiens, THP-1, Table B1, class symbols, read-out: Average IC50 of compounds in hTHP-1 assay: hTHP-1 IC50.
[2] abbreviates: Table B2, class symbols, read-out: hTHP-1 IC50.
[3] abbreviates: Homo sapiens, THP-1, Table B2, class symbols, read-out: hTHP-1 IC50.

A word on the IC50: it is the concentration needed to halve the response being measured. On to `Cc1c(-c2ccccc2)nc2c(c1NC(=O)N=S(N)(=O)c1cnc(C(C)(C)O)s1)CCC2` (single isomer, unassigned) [Compound 143b, (R) or (S)-2-(2-hydroxy-propan-2-yl)-N′-((3-methyl-2-phenyl-6,7-dihydro-5H-cyclopenta[b]pyridin-4-yl)carbamoyl)thiazole-5-sulfonimidamide], for which the IC50 (Table B1, numeric bounds, read-out: Average IC50 of compounds in hTHP-1 assay: hTHP-1 IC50) is more than 30 µM.

On to `CC(C)(O)c1ncc(S(N)(=O)=NC(=O)Nc2c3c(nc4c2CCC4O)CCC3)s1` (stereo not shown) [Compound 178, N′-((3-hydroxy-1,2,3,5,6,7-hexahydrodicyclopenta[b,e]pyridin-8-yl)carbamoyl)-2-(2-hydroxypropan-2-yl)thiazole-5-sulfonimidamide], for which the IC50 under setting [1] lay within 5 to 30 µM.

`CCn1ccc(S(N)(=O)=NC(=O)Nc2c3c(nc4c2CC[C@H]4C)CCC3)n1` (single isomer, unassigned) [Compound 634a, (S) or (R)-1-Ethyl-N′-(((R)-3-methyl-1,2,3,5,6,7-hexahydrodicyclopenta [b,e]pyridin-8-yl)carbamoyl)-1H-pyrazole-3-sulfonimidamide]: under setting [2], the IC50 fell in the range of 5 to 30 µM.

On to `CC(C)(O)c1cnc(S(N)(=O)=NC(=O)Nc2c3c(nc4c2CCC4(C)C)CCC3)s1` (single isomer, unassigned) [Compound 686a, (S) or (R)-N′-((3,3-dimethyl-1,2,3,5,6,7-hexahydrodicyclopenta [b,e]pyridin-8-yl)carbamoyl)-5-(2-hydroxypropan-2-yl)thiazole-2-sulfonimidamide], for which the IC50 under setting [2] was 0.2 to 1 µM.

Regarding `CC(C)(O)c1csc(S(N)(=O)=NC(=O)Nc2c3c(nc(C(F)(F)F)c2C2CC2)CCC3)c1` (single isomer, unassigned) [Example 645, (S) or (R)-N′-((3-cyclopropyl-2-(trifluoromethyl)-6,7-dihydro-5H-cyclopenta[b]pyridin-4-yl)carbamoyl)-4-(2-hydroxypropan-2-yl) thiophene-2-sulfonimidamide], where the note is “Table B3, hTHP-1 assay, class symbols, read-out: IC50”, the IC50 lay in the range of 5 to 30 µM.

In the case of `NS(=O)(=NC(=O)Nc1c2c(nc3c1CCC3)CCC2)c1ccn(CC(F)(F)F)n1` (single isomer, unassigned) [Compound 685b, (R) or (S)-N′-((1,2,3,5,6,7-hexahydrodicyclopenta [b,e]pyridin-8-yl)carbamoyl)-1-(2,2,2-trifluoroethyl)-1H-pyrazole-3-sulfonimidamide], the IC50 under setting [3] is 1 to 5 µM.

For `CCc1c(C)nc2c(c1NC(=O)N=S(N)(=O)c1cnc(C(C)(C)O)s1)CCC2` (stereo not shown) [Compound 117, N′-((3-ethyl-2-methyl-6,7-dihydro-5H-cyclopenta[b]pyridin-4-yl)carbamoyl)-2-(2-hydroxypropan-2-yl)thiazole-5-sulfonimidamide], the IC50 under setting [1] lay within 5 to 30 µM.

On to `CC(C)(O)c1ccnc(S(N)(=O)=NC(=O)Nc2c3c(nc4c2CCC4(C)C)CCC3)c1` (single isomer, unassigned) [Compound 620b, (R) or (S)-N′-((3,3-dimethyl-1,2,3,5,6,7-hexahydrodicyclopenta [b,e]pyridin-8-yl)carbamoyl)-4-(2-hydroxypropan-2-yl)pyridine-2-sulfonimidamide], for which the IC50 under setting [3] was in the range of 1 to 5 µM.

With `Cc1c(C2CC2)nc2c(c1NC(=O)N=S(N)(=O)c1cc(C(C)(C)O)n(-c3ccccc3)n1)CCC2` (single isomer, unassigned) [Compound 651b, (R) or (S)-N′-((2-cyclopropyl-3-methyl-6,7-dihydro-5H-cyclopenta[b]pyridin-4-yl)carbamoyl)-5-(2-hydroxypropan-2-yl)-1-phenyl-1H-pyrazole-3-sulfonimidamide], the IC50 under setting [2] was 1 to 5 µM.

`Cc1c(C(C)C)nc2c(c1NC(=O)N=S(N)(=O)c1cc(C(C)(C)O)cs1)CCC2` (single isomer, unassigned) [Compound 681a, (S) or (R)-4-(2-Hydroxypropan-2-yl)-N′-((2-isopropyl-3-methyl-6,7-dihydro-5H-cyclopenta[b]pyridin-4-yl)carbamoyl) thiophene-2-sulfonimidamide]: the IC50 under setting [2] lay in the range of 1 to 5 µM.
